# Measurements: PubChem BioAssay AID1845195 (Molecular Pharmacology Branch, DTP, NCI, 2023)
# Test system: 156681-154-R-J1 tumor spheroid viability
# Experiment: Anticancer human tumor 156681-154-R-J1 patient-derived melanoma cell line growth inhibition
# Details: spheroids with HUVEC and MSC; for IC50: curve of first compound; for viability, T/C: stronger effect = lower value
# From the text: Multicellular complex tumor spheroid response to DNA repair inhibitors in combination with DNA-damaging drugs
# This study explores the anticancer activities of DNA-damaging drugs and inhibitors of DNA damage repair, both as single agents and in combinations. Complex tumor spheroids comprised of malignant cells, endothelial cells and mesenchymal stem cells served as an in vitro model for human solid tumors. This model system incorporates physiologically relevant features and patient-derived or established malignant cell lines with clinically relevant genetic alterations from many tumor types. Twenty-six patient-derived or established malignant cell lines were evaluated representing sarcoma, melanoma, small cell lung cancer (SCLC), non-small cell lung cancer (NSCLC), as well as bladder, ovarian and pancreatic cancers. The concentration ranges selected for each drug and investigational agent were based upon clinically achievable concentrations if the clinical Cmax of the agent was known.
# Compounds. The drugs and compounds olaparib (NSC753686), talazoparib (NSC767125), berzosertib (NSC777718), elimusertib (NSC800525), nedisertib (NSC802822), VX-984 (NSC792969), AZD-1390 (NSC803789), temozolomide (NSC362856), topotecan (NSC609699), trabectedin (NSC813783), staurosporine (NSC755774), and gemcitabine (NSC613327) were obtained from the National Cancer Institute (NCI) Developmental Therapeutics Program Chemical Repository. The FDA-approved anticancer drug set is available from the Developmental Therapeutics Program at https://dtp.cancer.gov/organization/dscb/obtaining/available_plates.htm. […] The stock solutions were prepared in dimethyl sulfoxide (DMSO, Sigma-Aldrich, St. Louis, MO, cat. D2650) at 400-fold the tested concentration and stored at -70 degrees C. Prior to their use, the stock solutions were diluted in fresh medium and the final DMSO concentration in the assay was 0.25% (v/v). All drugs and investigational agents were tested over a range starting from a high concentration at or near the clinical Cmax and decreasing in half-log increments. If the clinical Cmax for an agent had not been determined, the highest concentration tested was 10 microM.
# Cell Lines. The patient-derived cancer cell (PDC) lines: 156681-154-R-J1-PDC, 283228-195-R-J1-PDC, 287954-098-R-J1-PDC, 292921-168-R-J2-PDC, 349418-098-R-PDC, 425362-245-T-J1-PDC, 556581-035-R-J1-PDC, and BL0293-F563-PDC were received from the NCI Patient-Derived Models Repository (PDMR, https://pdmr.cancer.gov). The established cell lines HS-SY-2 (RRID:CVCL_8719), MPNST, and SYO-1 (RRID:CVCL_7146) were obtained from the Sloan Kettering Institute. The alveolar soft parts sarcoma cell line ASPS-1 (RRID:CVCL_S738) was established at the NCI and grown from internal seed stocks. The following established cell lines were purchased from the American Type Culture Collection (ATCC, Manassas, VA): G-401 (ATCC, cat. CRL-1441, RRID:CVCL_0270), SW982 (ATCC, cat. HTB-93, RRID:CVCL_1734), VA-ES-BJ (ATCC, cat. CRL-2138, RRID:CVCL_1785), NCI-H719 (ATCC, cat. CRL-5837, RRID:CVCL_1582), NCI-H196 (ATCC, cat. CRL-5823, RRID:CVCL_1509), NCI-H841 (ATCC, cat. CRL-5845, RRID:CVCL_1595), NCI-H1618 (ATCC, cat. CRL-5879, RRID:CVCL_1480), NCI-H1876 (ATCC, cat. CRL-5902, RRID:CVCL_1503), DMS 114 (ATCC, cat. CRL-2066; RRID:CVCL_1174), NCI-H211 (ATCC, cat. CRL-5824; RRID:CVCL_1529), and SW 1271 (ATCC, cat. CRL-2177, RRID:CVCL_1716). The small cell lung cancer cell line COR-L88 was purchased from Sigma-Aldrich (cat. 92031917-1VL, RRID:CVCL_1141). The non-small cell lung cancer cell lines NCI-H226 (RRID:CVCL_1544) and NCI-H322M (RRID:CVCL_1557) were established at the NCI and grown from internal seed stocks. Pooled donor human umbilical vein endothelial cells (HUVEC, Lonza, cat. CC-2519) and human mesenchymal stem cells (hMSC, Lonza, cat. PT-2501) were purchased from Lonza (Walkersville, MD).
# Cell Culture. All cells were maintained in an incubator at 37 degrees C and 5% CO2 with 95% humidity. […]
# 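Note: spheroids exposed to compounds for 7 days before readout.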
# 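Throughout, for viability, T/C: percent of vehicle control viability where 100% = DMSO-treated spheroids.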
compound,measurement,setting,value
Cc1cc(C)c(CNC(=O)c2cc(-c3ccc(CN4CCOCC4)cc3)cc3c2cnn3C2CCCC2)c(=O)[nH]1 + Cn1nnc2c(C(N)=O)ncn2c1=O,IC50,second compound 1 µM,> 10 µM
same,IC50,second compound 3.16 µM,> 10 µM
same,IC50,second compound 10 µM,> 10 µM
same,IC50,second compound 31.6 µM,> 10 µM
same,IC50,second compound 100 µM,> 10 µM
same,"viability, T/C","second compound 1 µM, first compound 0.0316 µM",72.6%
same,"viability, T/C","second compound 1 µM, first compound 0.1 µM",107%
same,"viability, T/C","second compound 1 µM, first compound 0.316 µM",90.2%
same,"viability, T/C","second compound 1 µM, first compound 1 µM",92.4%
same,"viability, T/C","second compound 1 µM, first compound 3.16 µM",79.6%
same,"viability, T/C","second compound 1 µM, first compound 10 µM",82.4%
same,"viability, T/C","second compound 3.16 µM, first compound 0.0316 µM",90.6%
same,"viability, T/C","second compound 3.16 µM, first compound 0.1 µM",72.7%
same,"viability, T/C","second compound 3.16 µM, first compound 0.316 µM",83.7%
same,"viability, T/C","second compound 3.16 µM, first compound 1 µM",87.2%
same,"viability, T/C","second compound 3.16 µM, first compound 3.16 µM",68.8%
same,"viability, T/C","second compound 3.16 µM, first compound 10 µM",84.4%
same,"viability, T/C","second compound 10 µM, first compound 0.0316 µM",105%
same,"viability, T/C","second compound 10 µM, first compound 0.1 µM",73.3%
same,"viability, T/C","second compound 10 µM, first compound 0.316 µM",72.4%
same,"viability, T/C","second compound 10 µM, first compound 1 µM",67.1%
same,"viability, T/C","second compound 10 µM, first compound 3.16 µM",69.2%
same,"viability, T/C","second compound 10 µM, first compound 10 µM",77.5%
same,"viability, T/C","second compound 31.6 µM, first compound 0.0316 µM",74.2%
same,"viability, T/C","second compound 31.6 µM, first compound 0.1 µM",65.7%
same,"viability, T/C","second compound 31.6 µM, first compound 0.316 µM",50.5%
same,"viability, T/C","second compound 31.6 µM, first compound 1 µM",63%
same,"viability, T/C","second compound 31.6 µM, first compound 3.16 µM",51.9%
same,"viability, T/C","second compound 31.6 µM, first compound 10 µM",58.4%
same,"viability, T/C","second compound 100 µM, first compound 0.0316 µM",51.2%
same,"viability, T/C","second compound 100 µM, first compound 0.1 µM",61.9%
same,"viability, T/C","second compound 100 µM, first compound 0.316 µM",67.2%
same,"viability, T/C","second compound 100 µM, first compound 1 µM",52.3%
same,"viability, T/C","second compound 100 µM, first compound 3.16 µM",56%
same,"viability, T/C","second compound 100 µM, first compound 10 µM",55.6%
